Usually EC50 stands for the concentration that produces a half-maximal response. A lower EC50 goes with an effect from little substance.

In this test the target is T1, IDO1 (Homo sapiens, UniProt P14902).
T1 construct: HeLa cells were treated with a test compound in the presence of IFNγ, which induces IDO1 expression; host or cells: H1-HeLa cells, IDO1 induced with IFNγ
T1 sequence (P14902 whole entry): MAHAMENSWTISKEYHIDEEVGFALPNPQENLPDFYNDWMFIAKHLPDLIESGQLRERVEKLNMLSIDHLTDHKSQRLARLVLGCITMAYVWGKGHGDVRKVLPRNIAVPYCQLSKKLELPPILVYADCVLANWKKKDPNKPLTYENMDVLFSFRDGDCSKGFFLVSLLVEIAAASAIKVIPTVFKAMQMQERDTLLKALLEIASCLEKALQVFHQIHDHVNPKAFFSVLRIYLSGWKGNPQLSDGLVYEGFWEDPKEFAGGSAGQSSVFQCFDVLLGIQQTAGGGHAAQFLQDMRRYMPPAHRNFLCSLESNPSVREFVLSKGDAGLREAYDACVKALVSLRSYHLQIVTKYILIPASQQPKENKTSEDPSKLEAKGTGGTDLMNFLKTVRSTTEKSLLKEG
The experiment in a line: Cell-based (HeLa) assay for measurement of IDO1 inhibition (kynurenine levels in supernatant after IFNγ induction). Particulars: HeLa cells, IFNγ-induced IDO1, kynurenine in supernatant after 48 hour incubation; geometric mean of a minimum of four determinations. In a few lines:
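HeLa cells, 1,250 per well, treated with compound (0.5% DMSO final) plus IFNγ to induce IDO1, for 48 h. Supernatant kynurenine measured by TCA hydrolysis at 60 °C, then p-dimethylaminobenzaldehyde, absorbance 480 nm. EC50 from a four-parameter fit normalized to −/+IFNγ controls; geometric mean of at least four runs.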
Consider `CN(C)CCc1nc2nccc(/C(=N/O)Nc3cccc(Br)c3)c2[nH]1` [Example 265, N-(3-bromophenyl)-2-(2-(dimethylamino)ethyl)-N′-hydroxy-1H-imidazo[4,5-b]pyridine-7-carboximidamide], for which a half-maximal response (EC50) required 501 nM. In other words, the sub-micromolar range.
The figure for `CS(=O)(=O)NCCc1nc2nccc(/C(=N/O)Nc3ccc(F)c(Cl)c3)c2[nH]1` [Example 266, N-(3-chloro-4-fluorophenyl)-N′-hydroxy-2-(2-(methylsulfonamido)ethyl)-1H-imidazo[4,5-b]pyridine-7-carboximidamide] is over 10000 nM; for `NS(=O)(=O)NCCc1nc2nccc(/C(=N/O)Nc3ccc(F)c(Cl)c3)c2[nH]1` [Example 267, N-(3-chloro-4-fluorophenyl)-N′-hydroxy-2-(2-(sulfamoylamino)ethyl)-1H-imidazo[4,5-b]pyridine-7-carboximidamide] it is over 10000 nM; for `O/N=C(\Nc1cccc(Cl)c1)c1ccnc2nc(CCN3CCCC3)[nH]c12` [Example 268, N-(3-chlorophenyl)-N′-hydroxy-2-(2-(pyrrolidin-1-yl)ethyl)-1H-imidazo[4,5-b]pyridine-7-carboximidamide] it is 952 nM.
In the case of `O/N=C(\Nc1cccc(Br)c1)c1ccnc2nc(CCN3CCCC3)[nH]c12` [Example 269, N-(3-bromophenyl)-N′-hydroxy-2-(2-(pyrrolidin-1-yl)ethyl)-1H-imidazo[4,5-b]pyridine-7-carboximidamide], the 50% effective concentration (EC50) was determined as 979 nM.
The figure for `CC(=O)NCCc1nc2nccc(/C(=N/O)Nc3ccc(F)c(Cl)c3)c2[nH]1` [Example 270, N-(2-(7-(N-(3-chloro-4-fluorophenyl)-N′-hydroxycarbamimidoyl)-1H-imidazo[4,5-b]pyridin-2-yl)ethyl)acetamide] is over 10000 nM; for `O/N=C(\Nc1cccc(Cl)c1)c1ccnc2nc(CCN3CCCCC3)[nH]c12` [Example 271, N-(3-chlorophenyl)-N′-hydroxy-2-(2-(piperidin-1-yl)ethyl)-1H-imidazo[4,5-b]pyridine-7-carboximidamide] it is 602 nM.
The figure for `O/N=C(\Nc1cccc(Br)c1)c1ccnc2nc(CCN3CCCCC3)[nH]c12` [Example 272, N-(3-bromophenyl)-N′-hydroxy-2-(2-(piperidin-1-yl)ethyl)-1H-imidazo[4,5-b]pyridine-7-carboximidamide] is 477 nM; for `COC(=O)NCCc1nc2nccc(/C(=N/O)Nc3ccc(F)c(Cl)c3)c2[nH]1` [Example 273, Methyl (2-(7-(N-(3-chloro-4-fluorophenyl)-N′-hydroxycarbamimidoyl)-1H-imidazo[4,5-b]pyridin-2-yl)ethyl)carbamate] it is over 10000 nM; for `COc1ccc(CNCCc2nc3nccc(/C(=N/O)Nc4ccc(F)c(Cl)c4)c3[nH]2)c(OC)c1` [Example 274, N-(3-chloro-4-fluorophenyl)-2-(2-((2,4-dimethoxybenzyl)amino)ethyl)-N′-hydroxy-1H-imidazo[4,5-b]pyridine-7-carboximidamide] it is 1970 nM.
The figure for `O/N=C(\Nc1ccc(F)c(Cl)c1)c1ccnc2nc(CCN3CCC(Cc4ccccc4)CC3)[nH]c12` [Example 275, 2-(2-(4-benzylpiperidin-1-yl)ethyl)-N-(3-chloro-4-fluorophenyl),N′-hydroxy-1H-imidazo[4,5-b]pyridine-7-carboximidamide] is 675 nM.
Regarding `O/N=C(\Nc1ccc(F)c(Cl)c1)c1ccnc2nc(CCN3CC4CCCC(C4)C3)[nH]c12` [Example 276, 2-(2-(3-azabicyclo[3.3.1]nonan-3-yl)ethyl)-N-(3-chloro-4-fluorophenyl)-N′-hydroxy-1H-imidazo[4,5-b]pyridine-7-carboximidamide], the concentration giving a half-maximal response (EC50) was 618 nM.
In the case of `O/N=C(\Nc1ccc(F)c(Cl)c1)c1ccnc2nc(CCN3CC4CCC(C4)C3)[nH]c12` [Example 277, 2-(2-(3-azabicyclo[3.2.1]octan-3-yl)ethyl)-N-(3-chloro-4-fluorophenyl)-N′-hydroxy-1H-imidazo[4,5-b]pyridine-7-carboximidamide], a half-maximal effect (EC50) was put at 576 nM.
The figure for `CN1CCCC(Nc2nc3nccc(/C(=N/O)Nc4ccc(F)c(Cl)c4)c3[nH]2)C1` (stereo not shown) [Example 278, N-(3-chloro-4-fluorophenyl)-N′-hydroxy-2-((1-methylpiperidin-3-yl)amino)-1H-imidazo[4,5-b]pyridine-7-carboximidamide] is 1070 nM.
In turn, `O/N=C(\Nc1ccc(F)c(Cl)c1)c1ccnc2nc(NCCN3CC[C@H](O)C3)[nH]c12` [Example 279, (S)—N-(3-chloro-4-fluorophenyl)-N′-hydroxy-2-((2-(3-hydroxypyrrolidin-1-yl)ethyl)amino)-1H-imidazo[4,5-b]pyridine-7-carboximidamide] showed a 50% effective concentration (EC50) of 5280 nM. This EC50 lies about 4.9-fold higher than the previous one.
The figure for `O/N=C(\Nc1ccc(F)c(Cl)c1)c1ccnc2nc(N3CC[C@H](O)C3)[nH]c12` [Example 280, (S)—N-(3-chloro-4-fluorophenyl)-N′-hydroxy-2-(3-hydroxypyrrolidin-1-yl)-1H-imidazo[4,5-b]pyridine-7-carboximidamide] is over 10000 nM; for `COCCN1CCC(Nc2nc3nccc(/C(=N/O)Nc4ccc(F)c(Cl)c4)c3[nH]2)C1` (stereo not shown) [Example 281, N-(3-chloro-4-fluorophenyl)-N′-hydroxy-2-((1-(2-methoxyethyl)pyrrolidin-3-yl)amino)-1H-imidazo[4,5-b]pyridine-7-carboximidamide] it is 1260 nM.
The figure for `CN1CCOCC1CNc1nc2nccc(/C(=N/O)Nc3ccc(F)c(Cl)c3)c2[nH]1` (stereo not shown) [Example 282, N-(3-chloro-4-fluorophenyl)-N′-hydroxy-2-(((4-methylmorpholin-3-yl)methyl)amino)-1H-imidazo[4,5-b]pyridine-7-carboximidamide] is over 10000 nM; for `O/N=C(\Nc1ccc(F)c(Cl)c1)c1ccnc2nc(NCCN3CCCC3)[nH]c12` [Example 283, N-(3-chloro-4-fluorophenyl)-N′-hydroxy-2-((2-(pyrrolidin-1-yl)ethyl)amino)-1H-imidazo[4,5-b]pyridine-7-carboximidamide] it is 2720 nM.
The figure for `CCNCc1nc2c(F)ccc(/C(=N/O)Nc3ccc(F)c(Cl)c3)c2[nH]1` [Example 287, N-(3-chloro-4-fluorophenyl)-2-((ethylamino)methyl)-4-fluoro-N′-hydroxy-1H-benzo[d]imidazole-7-carboximidamide] is 1670 nM; for `CN(C)Cc1nc2c(F)ccc(/C(=N/O)Nc3ccc(F)c(Cl)c3)c2[nH]1` [Example 288, N-(3-chloro-4-fluorophenyl)-2-((dimethylamino)methyl)-4-fluoro-N′-hydroxy-1H-benzo[d]imidazole-7-carboximidamide] it is 1820 nM.
With `CC(C)NCc1nc2c(F)ccc(/C(=N/O)Nc3ccc(F)c(Cl)c3)c2[nH]1` [Example 289, N-(3-chloro-4-fluorophenyl)-4-fluoro-N′-hydroxy-2-((isopropylamino)methyl)-1H-benzo[d]imidazole-7-carboximidamide], the EC50 was 2230 nM. The EC50 values of the last two compounds are within 1.5-fold of each other.
On to `CNCc1nc2c(F)ccc(/C(=N/O)Nc3ccc(F)c(Cl)c3)c2[nH]1` [Example 290, N-(3-chloro-4-fluorophenyl)-4-fluoro-N′-hydroxy-2-((methylamino)methyl)-1H-benzo[d]imidazole-7-carboximidamide], for which the EC50 worked out at 1290 nM.
The figure for `NCc1nc2c(F)ccc(/C(=N/O)Nc3ccc(F)c(Cl)c3)c2[nH]1` [Example 291, 2-(aminomethyl)-N-(3-chloro-4-fluorophenyl)-4-fluoro-N′-hydroxy-1H-benzo[d]imidazole-7-carboximidamide] is 2650 nM; for `CC(C)(O)CNc1nc2c(F)c(F)cc(/C(=N/O)Nc3ccc(F)c(Cl)c3)c2[nH]1` [Example 292, N-(3-chloro-4-fluorophenyl)-4,5-difluoro-N′-hydroxy-2-((2-hydroxy-2-methylpropyl)amino)-1H-benzo[d]imidazole-7-carboximidamide] it is 3320 nM.
The figure for `CC(O)CNc1nc2c(F)c(F)cc(/C(=N/O)Nc3ccc(F)c(Cl)c3)c2[nH]1` (stereo not shown) [Example 293, N-(3-chloro-4-fluorophenyl)-4,5-difluoro-N′-hydroxy-2-((2-hydroxypropyl)amino)-1H-benzo[d]imidazole-7-carboximidamide] is 3000 nM; for `NC(=O)CNc1nc2c(F)c(F)cc(/C(=N/O)Nc3ccc(F)c(Cl)c3)c2[nH]1` [Example 294, 2-((7-(N-(3-chloro-4-fluorophenyl)-N′-hydroxycarbamimidoyl)-4,5-difluoro-1H-benzo[d]imidazol-2-yl)amino)acetamide] it is 9950 nM; for `OCCNc1nc2c(F)c(F)cc(/C(=N/O)Nc3ccc(F)c(Cl)c3)c2[nH]1` [Example 295, N-(3-chloro-4-fluorophenyl)-4,5-difluoro-N′-hydroxy-2-((2-hydroxyethyl)amino)-1H-benzo[d]imidazole-7-carboximidamide] it is 3260 nM.
The figure for `O/N=C(\Nc1ccc(F)c(Cl)c1)c1cc(F)c(F)c2nc(NC3CC(O)C3)[nH]c12` (stereo not shown) [Example 296, N-(3-chloro-4-fluorophenyl)-4,5-difluoro-N′-hydroxy-2-((3-hydroxycyclobutyl)amino)-1H-benzo[d]imidazole-7-carboximidamide] is over 10000 nM; for `O/N=C(\Nc1ccc(F)c(Cl)c1)c1cc(F)c(F)c2nc(NCCCNc3ccccn3)[nH]c12` [Example 297, N-(3-chloro-4-fluorophenyl)-4,5-difluoro-N′-hydroxy-2-((3-(pyridin-2-ylamino)propyl)amino)-1H-benzo[d]imidazole-7-carboximidamide] it is 1150 nM; for `NS(=O)(=O)CCNc1nc2c(F)c(F)cc(/C(=N/O)Nc3ccc(F)c(Cl)c3)c2[nH]1` [Example 298, N-(3-chloro-4-fluorophenyl)-4,5-difluoro-N′-hydroxy-2-((2-sulfamoylethyl)amino)-1H-benzo[d]imidazole-7-carboximidamide] it is 9560 nM.

The values above are taken from patent publication US9951065B2 (Gilead Sciences, Inc., priority 2015, dated 2018).
